From patent US7704957B2, “Composition for inhibiting HIV activity extracted from Paecilomyces sp. (Tochu-kaso) J300” (priority 2001, dated 2010)
Residues, ends and D or L forms follow the SMILES beside them.

What was measured:
HIV [1] = test: Functional mechanism: sample added 30 minutes before or after virus infection; assay type: cell-based; conditions: sample 30 minutes before infection, FIG. 7
Procedure: To determine whether a material functions or not in the cell, the mixture of cell and sample is incubated for 30 minutes then infected with virus. […] In these case, the samples permeate the membranes of the cell and suppress the propagation of the virus in the cell, as well as the samples attach on the surface of the cell and suppress the introduction of the virus into the cell (FIG. 7)
In addition, after the cell was infected with the virus and incubated for 30 minutes, then the extracts of Tochu-kaso J300 were administered. If the functional site of the active material is out of the cell, the anti-HIV activity would not be detected; on the other hand, if the functional site is in the cell, the activity would be detected. […] This proves that the active material suppresses the propagation of the virus in the cell, even when the sample is administered after a long time after the infection of the cell with virus (FIG. 8).

HIV [2] = test: Anti-HIV activity: survivability of cells protected from destruction by HIV, XTT method (National Cancer Institute method); assay type: cell-based; conditions: fractions Dong 1-2-1 to 1-2-8
Procedure: In FIGS. 2 to 8, 11 and 18, the term “Infected” (diamond mark ♦) is for the samples that a reagent is applied after the cells are infected with the virus to observe the protection of cells from the cell destruction of HIV. The term “Uninfected” (square mark □) is for the samples that only reagent is added with different concentration to observe the toxicity of the reagent according to the concentration. Further, X axis represents the concentration of the sample and Y axis represents the survivability of the cells in percentages (%).
In the present invention, the measurement of anti-HIV activity followed the method of National Cancer Institute (U.S.A.). In the method, survivability of cells that are protected from the destruction due to HIV was measured when the cells were treated with the active component of the present invention to determine the anti-HIV activity of the material.
In detail, the mixture of cell+HIV+sample (active compound) was cultured for 1 week, and then cell toxicity was measured by XTT method. […]
In this example, colorimetric assay was adopted to observe the growth and death of the cells, which uses the fact that tetrazole salt (MTT, XTT, WST-1) is broken only in the living cell to form non-soluble formazan structure. By quantitating the amount of the formazane wih ELISA method, the amount of living cell is measured quantitatively. […]

| SMILES | activity when sample is added to the cell and virus infected 30 minutes later (HIV [1]) | anti-AIDS activity of fractions of Dong 1-2 (HIV [2]) |
| --- | --- | --- |
| COC(C)C1NC(=O)C(CCC(=O)O)NC1=O (stereo not shown) [Dong 1-2-4, 3-[5-(methoxy-ethyl)-3,6-dioxo-piperazine-2-yl]propionic acid] | showed activity | more intense activity compared to others |
| CC(C)CC(NC(=O)C1CCCN1)C(=O)O (stereo not drawn) [Dong 1-2-5, 4-methyl-2-[(pyrolidine-2-carbonyl)-2-amino]pentanoic acid] (H-Pro-Leu-OH; configuration not given here) | showed activity | more intense activity compared to others |
